Assay results published in US6608082B1, “Treatment of erectile dysfunction using isoquinoline compound melanocortin receptor ligands” (Lion Bioscience AG, priority 1998, dated 2003).
Like-named read-outs stand apart in the source and are kept apart here.

Experiments:
MCR-4 = molecular target: T1, MCR-4 (Homo sapiens, UniProt P32245); assay: Melanocortin receptor binding assay, competition with 125I-HP 467, HEK 293 cells expressing hMCR-4; details: for IC50: read-out: MC-4 IC50
T1 construct: expressed in transfected cells; host or cells: HEK 293
T1 sequence (P32245 whole entry): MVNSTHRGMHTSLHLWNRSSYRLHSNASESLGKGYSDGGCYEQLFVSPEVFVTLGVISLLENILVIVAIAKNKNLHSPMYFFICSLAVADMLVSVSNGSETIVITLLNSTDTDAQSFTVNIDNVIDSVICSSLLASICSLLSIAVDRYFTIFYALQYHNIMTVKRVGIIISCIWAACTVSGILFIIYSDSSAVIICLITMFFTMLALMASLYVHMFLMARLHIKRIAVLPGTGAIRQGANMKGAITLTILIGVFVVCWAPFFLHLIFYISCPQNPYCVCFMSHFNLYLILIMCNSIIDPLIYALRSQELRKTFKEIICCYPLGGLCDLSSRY
In short: (§1)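 Intact-cell competition binding, 2.5 hr at 37 °C, in PBS/10% calf serum/1 mM CaCl2; hMCR-4 cells at 4×10^3 per tube, hMCR-1 cells at 2×10^4 per tube. Filtration on BSA/CaCl2-soaked GF/B, cold 50 mM Tris pH 7.4 washes, scintillation count.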

MCR-1 = molecular target: T2, MCR-1 (Homo sapiens, UniProt Q01726); assay: Melanocortin receptor binding assay, competition with 125I-HP 467, HEK 293 cells expressing hMCR-1; details: read-out: MC-1 IC50
T2 construct: expressed in transfected cells; host or cells: HEK 293
T2 sequence (Q01726 whole entry): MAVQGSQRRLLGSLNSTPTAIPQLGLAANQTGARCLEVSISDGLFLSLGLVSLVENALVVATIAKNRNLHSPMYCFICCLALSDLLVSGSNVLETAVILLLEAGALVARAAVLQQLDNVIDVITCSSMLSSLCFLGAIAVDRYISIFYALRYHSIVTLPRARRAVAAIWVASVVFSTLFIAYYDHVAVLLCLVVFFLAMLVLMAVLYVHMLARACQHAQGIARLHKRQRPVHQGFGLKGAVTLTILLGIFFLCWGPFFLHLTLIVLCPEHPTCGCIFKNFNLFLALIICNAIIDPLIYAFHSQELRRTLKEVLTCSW
In short: as §1

[1] = TRG 2406 and TRG 2407 libraries, inhibition of binding of 125I-HP 467
[2] = TRG 2408 and TRG 2409 libraries, inhibition of 125I-HP 467 binding

SMILES | IC50 (MCR-4; [1]) | IC50 (MCR-1; [1]) | MC-4 IC50 (MCR-4; [1]) | IC50 (MCR-4; [2]) | IC50 (MCR-1; [2])
CNC(CN)CCCCN1Cc2ccccc2C(CNCc2ccccc2Cl)C1c1ccc(Cl)cc1Cl (stereo not drawn) [TRG 2407-12] | 3230 nM | 2700 nM |  |  | 
CNC(CN)CCCCN1Cc2ccccc2C(CNCc2ccccc2C(F)(F)F)C1c1ccc(Cl)cc1Cl (stereo not drawn) [TRG 2407-13] | 9250 nM | 8500 nM |  |  | 
CCOc1ccccc1CNCC1c2ccccc2CN(CCCCC(CN)NC)C1c1ccc(Cl)cc1Cl (stereo not drawn) [TRG 2407-15] | 780 nM | 1200 nM |  |  | 
CNC(CN)CCCCN1Cc2ccccc2C(CNCc2cccc(OC)c2)C1c1ccc(Cl)cc1Cl (stereo not drawn) [TRG 2407-16] | 1810 nM | 5830 nM |  |  | 
CNC(CN)CCCCN1Cc2ccccc2C(CNCc2cccc(C(F)(F)F)c2)C1c1ccc(Cl)cc1Cl (stereo not drawn) [TRG 2407-17] | 9220 nM | 10100 nM |  |  | 
CNC(CN)CCCCN1Cc2ccccc2C(CNCc2ccc(Cl)cc2)C1c1ccc(Cl)cc1Cl (stereo not drawn) [TRG 2407-18] | 2830 nM | 3310 nM |  |  | 
CNC(CN)CCCCN1Cc2ccccc2C(CNCc2ccc(OC)cc2)C1c1ccc(Cl)cc1Cl (stereo not drawn) [TRG 2407-19] | 2040 nM | 2290 nM |  |  | 
CNC(CN)CCCCN1Cc2ccccc2C(CNCc2ccc(C(F)(F)F)cc2)C1c1ccc(Cl)cc1Cl (stereo not drawn) [TRG 2407-20] | 3490 nM | 3780 nM |  |  | 
CNC(CN)CCCCN1Cc2ccccc2C(CNCCc2ccccc2)C1c1ccc(Cl)cc1Cl (stereo not drawn) [TRG 2407-21] | 360 nM | 1030 nM |  |  | 
CNC(CN)CCCCN1Cc2ccccc2C(CNCCc2ccc(OC)cc2)C1c1ccc(Cl)cc1Cl (stereo not drawn) [TRG 2407-25] | 620 nM | 1470 nM |  |  | 
CNC(CN)CCCCN1Cc2ccccc2C(CNCCCc2ccccc2)C1c1ccc(Cl)cc1Cl (stereo not drawn) [TRG 2407-26] | 830 nM | 700 nM |  |  | 
CNC(CN)CCCCN1Cc2ccccc2C(CNC2CCCC2)C1c1ccc(Cl)cc1Cl (stereo not drawn) [TRG 2407-27] | 530 nM | 570 nM |  |  | 
CNC(CN)CCCCN1Cc2ccccc2C(CNC(C)C)C1c1ccc(-c2ccccc2)cc1 (stereo not drawn) [TRG 2407-28] | 3600 nM | 310 nM |  |  | 
CNC(CN)CCCCN1Cc2ccccc2C(CNC2CCCCCC2)C1c1ccc(Cl)cc1Cl (stereo not drawn) [TRG 2407-29] | 770 nM | 640 nM |  |  | 
CNC(CN)CCCCN1Cc2ccccc2C(CN(C)C2CCCCC2)C1c1ccc(Cl)cc1Cl (stereo not drawn) [TRG 2407-30] | 2100 nM | 3150 nM |  |  | 
CNC(CN)CCCCN1Cc2ccccc2C(CN2CCCCC2)C1c1ccc(Cl)cc1Cl (stereo not drawn) [TRG 2407-32] | 2140 nM | 3290 nM |  |  | 
CNC(CN)CCCCN1Cc2ccccc2C(CN2CCOCC2)C1c1ccc(Cl)cc1Cl (stereo not drawn) [TRG 2407-33] | 6020 nM | 6900 nM |  |  | 
CCN(CC)CC1c2ccccc2CN(CCCCC(CN)NC)C1c1ccc(Cl)cc1Cl (stereo not drawn) [TRG 2407-35] | 3410 nM | 6520 nM |  |  | 
C=CCNCC1c2ccccc2CN(CCCCC(CN)NC)C1c1ccc(Cl)cc1Cl (stereo not drawn) [TRG 2407-36] | 460 nM | 430 nM |  |  | 
CNC(CN)CCCCN1Cc2ccccc2C(CNC(C)C)C1c1ccc(Cl)cc1Cl (stereo not drawn) [TRG 2407-37] | 540 nM | 910 nM |  |  | 
CNC(CN)CCCCN1Cc2ccccc2C(CO)C1c1ccc(Cl)cc1Cl (stereo not drawn) [TRG 2407-40] | 4940 nM | 4740 nM |  |  | 
CCNc1ccc(C2C(CNc3ccccc3)c3ccccc3CN2CCCCC(CN)NC)cc1 (stereo not drawn) [TRG 2407-41] | 17000 nM | 5870 nM |  |  | 
CCNc1ccc(C2C(CN(C)c3ccccc3)c3ccccc3CN2CCCCC(CN)NC)cc1 (stereo not drawn) [TRG 2407-42] | 7900 nM | 4230 nM |  |  | 
CCNc1ccc(C2C(CNc3ccccc3Cl)c3ccccc3CN2CCCCC(CN)NC)cc1 (stereo not drawn) [TRG 2407-43] | 11200 nM | 7070 nM |  |  | 
CCNc1ccc(C2C(CNc3ccccc3OC)c3ccccc3CN2CCCCC(CN)NC)cc1 (stereo not drawn) [TRG 2407-44] | 10400 nM | 1150 nM |  |  | 
CCNc1ccc(C2C(CNc3cccc(Cl)c3)c3ccccc3CN2CCCCC(CN)NC)cc1 (stereo not drawn) [TRG 2407-45] | 11000 nM | 7910 nM |  |  | 
CCNc1ccc(C2C(CNc3cccc(OCC)c3)c3ccccc3CN2CCCCC(CN)NC)cc1 (stereo not drawn) [TRG 2407-46] | 16400 nM | 1630 nM |  |  | 
CCNc1ccc(C2C(CNc3ccc(Cl)cc3)c3ccccc3CN2CCCCC(CN)NC)cc1 (stereo not drawn) [TRG 2407-48] | 10800 nM | 4480 nM |  |  | 
CNC(CN)CCCCN1Cc2ccccc2C(CNC2CCCCC2)C1c1ccc(-c2ccccc2)cc1 (stereo not drawn) [TRG 2408-50] |  |  |  | 13300 nM | 1550 nM

More lines, now with the values ahead:

IC50 (MCR-4; [1]) | IC50 (MCR-1; [1]) | MC-4 IC50 (MCR-4; [1]) | IC50 (MCR-4; [2]) | IC50 (MCR-1; [2]) | SMILES
 | 2360 nM | no fit |  |  | CCNc1ccc(C2C(CNc3ccc(OC)cc3)c3ccccc3CN2CCCCC(CN)NC)cc1 (stereo not drawn) [TRG 2407-49]
9100 nM | 350 nM |  |  |  | CCNc1ccc(C2C(CNCc3ccccc3)c3ccccc3CN2CCCCC(CN)NC)cc1 (stereo not drawn) [TRG 2407-50]
13500 nM | 2160 nM |  |  |  | CCNc1ccc(C2C(CN(C)Cc3ccccc3)c3ccccc3CN2CCCCC(CN)NC)cc1 (stereo not drawn) [TRG 2407-51]
1560 nM | 440 nM |  |  |  | CCNc1ccc(C2C(CNCc3ccccc3Cl)c3ccccc3CN2CCCCC(CN)NC)cc1 (stereo not drawn) [TRG 2407-52]
790 nM | 1270 nM |  |  |  | CCNc1ccc(C2C(CNCc3ccccc3C(F)(F)F)c3ccccc3CN2CCCCC(CN)NC)cc1 (stereo not drawn) [TRG 2407-53]
14900 nM | 190 nM |  |  |  | CCNc1ccc(C2C(CNCc3ccccc3OCC)c3ccccc3CN2CCCCC(CN)NC)cc1 (stereo not drawn) [TRG 2407-55]
 |  |  | 31800 nM | 1660 nM | CCNc1ccc(C2C(CNC3CCCCC3)c3ccccc3CN2CCCCC(N)CN)cc1 (stereo not drawn) [TRG 2408-5]
 |  |  | 7160 nM | 610 nM | CCNc1ccc(C2C(CNC3CCCCC3)c3ccccc3CN2CCCC[C@@H](CN)NCCc2ccccc2)cc1 (stereo partly drawn) [TRG 2408-6]
 |  |  | 43300 nM | 2310 nM | CCNc1ccc(C2C(CNC3CCCCC3)c3ccccc3CN2CCCCC(CN)NCCNC)cc1 (stereo not drawn) [TRG 2408-8]
 |  |  | 1580 nM | 1720 nM | NCC(N)CCCCN1Cc2ccccc2C(CNC2CCCCC2)C1c1ccc(Cl)cc1Cl (stereo not drawn) [TRG 2408-13]
 |  |  | 5520 nM | 2110 nM | NCC(CCCCN1Cc2ccccc2C(CNC2CCCCC2)C1c1ccc(Cl)cc1Cl)NCCc1ccccc1 (stereo not drawn) [TRG 2408-14]
 |  |  | 6300 nM | 760 nM | NCCNC(CN)CCCCN1Cc2ccccc2C(CNC2CCCCC2)C1c1ccc(Cl)cc1Cl (stereo not drawn) [TRG 2408-15]
 |  |  | 6110 nM | 1790 nM | CNCCNC(CN)CCCCN1Cc2ccccc2C(CNC2CCCCC2)C1c1ccc(Cl)cc1Cl (stereo not drawn) [TRG 2408-16]
 |  |  | 17400 nM | 1730 nM | NCC(N)CCCCN1Cc2ccccc2C(CNC2CCCCC2)C1c1ccc(-c2ccccc2)cc1 (stereo not drawn) [TRG 2408-21]
 |  |  | 11400 nM | 2770 nM | NCC(CCCCN1Cc2ccccc2C(CNC2CCCCC2)C1c1ccc(-c2ccccc2)cc1)NCCc1ccccc1 (stereo not drawn) [TRG 2408-22]
 |  |  | 20500 nM | 820 nM | NCCNC(CN)CCCCN1Cc2ccccc2C(CNC2CCCCC2)C1c1ccc(-c2ccccc2)cc1 (stereo not drawn) [TRG 2408-23]
 |  |  | 9440 nM | 1150 nM | CCNc1ccc(C2C(CNC3CCCCC3)c3ccccc3CN2CCCCC(CN)NCCc2ccccc2)cc1 (stereo not drawn) [TRG 2408-32]

IC50 (MCR-4; [1]) | IC50 (MCR-1; [1]) | MC-4 IC50 (MCR-4; [1]) | IC50 (MCR-4; [2]) | IC50 (MCR-1; [2]) | SMILES
 |  |  | 38700 nM | 1060 nM | CCNc1ccc(C2C(CNC3CCCCC3)c3ccccc3CN2CCCCC(CN)NCCN)cc1 (stereo not drawn) [TRG 2408-33]
 |  |  | 33600 nM | 2140 nM | CCNc1ccc(C2C(CNC3CCCCC3)c3ccccc3CN2CCCCC(CN)NCCNC)cc1 (stereo not drawn) [TRG 2408-34]
 |  |  | 8280 nM | 2430 nM | CN[C@@H](CN)CCCCN1Cc2ccccc2C(CNC2CCCCC2)C1c1ccc(Cl)cc1Cl (stereo partly drawn) [TRG 2408-40]
 |  |  | 3880 nM | 1030 nM | NC[C@H](N)CCCCN1Cc2ccccc2C(CNC2CCCCC2)C1c1ccc(Cl)cc1Cl (stereo partly drawn) [TRG 2408-41]
 |  |  | 4240 nM | 1930 nM | NC[C@@H](CCCCN1Cc2ccccc2C(CNC2CCCCC2)C1c1ccc(Cl)cc1Cl)NCCc1ccccc1 (stereo partly drawn) [TRG 2408-42]
 |  |  | 7490 nM | 1630 nM | NCCNC(CN)CCCCN1Cc2ccccc2C(CNC2CCCCC2)C1c1ccc(Cl)cc1Cl (stereo not drawn) [TRG 2408-43]
 |  |  | 5060 nM | 1270 nM | CNCCNC(CN)CCCCN1Cc2ccccc2C(CNC2CCCCC2)C1c1ccc(Cl)cc1Cl (stereo not drawn) [TRG 2408-44]
 |  |  | 29300 nM | 3190 nM | NC[C@H](N)CCCCN1Cc2ccccc2C(CNC2CCCCC2)C1c1ccc(-c2ccccc2)cc1 (stereo partly drawn) [TRG 2408-51]
 |  |  | 12300 nM | 3690 nM | NCC(CCCCN1Cc2ccccc2C(CNC2CCCCC2)C1c1ccc(-c2ccccc2)cc1)NCCc1ccccc1 (stereo not drawn) [TRG 2408-52]
 |  |  | 14800 nM | 1000 nM | NCCNC(CN)CCCCN1Cc2ccccc2C(CNC2CCCCC2)C1c1ccc(-c2ccccc2)cc1 (stereo not drawn) [TRG 2408-53]
 |  |  | 26800 nM | 610 nM | CNCCN[C@@H](CN)CCCCN1Cc2ccccc2C(CNC2CCCCC2)C1c1ccc(-c2ccccc2)cc1 (stereo partly drawn) [TRG 2408-54]
 |  |  | 20700 nM | 690 nM | CCNc1ccc(C2C(CNC3CCCCC3)c3ccccc3CN2CCCC(CN)NC)cc1 (stereo not drawn) [TRG 2408-60]
 |  |  | 35200 nM | 690 nM | CCNc1ccc(C2C(CNC3CCCCC3)c3ccccc3CN2CCCC(N)CN)cc1 (stereo not drawn) [TRG 2408-61]
 |  |  | 18700 nM | 690 nM | CCNc1ccc(C2C(CNC3CCCCC3)c3ccccc3CN2CCCC(CN)NCCN)cc1 (stereo not drawn) [TRG 2408-63]
 |  |  | 25000 nM | 2670 nM | CCNc1ccc(C2C(CNC3CCCCC3)c3ccccc3CN2CCCC(CN)NCCNC)cc1 (stereo not drawn) [TRG 2408-64]
 |  |  | 2500 nM | 1460 nM | CNC(CN)CCCN1Cc2ccccc2C(CNC2CCCCC2)C1c1ccc(Cl)cc1Cl (stereo not drawn) [TRG 2408-70]
 |  |  | 3030 nM | 1190 nM | NCC(N)CCCN1Cc2ccccc2C(CNC2CCCCC2)C1c1ccc(Cl)cc1Cl (stereo not drawn) [TRG 2408-71]
